From patent publication US12624018B1, “Inhibitors of RIPK2 and medical uses thereof” (Odyssey Therapeutics, Inc., priority 2022, dated 2026) come the findings set out here.

The target in the assay is T1, RIPK2 enzyme (Homo sapiens, UniProt O43353).
T1 construct: purchased Carna 09-128
T1 sequence (O43353 1-299 limits assumed): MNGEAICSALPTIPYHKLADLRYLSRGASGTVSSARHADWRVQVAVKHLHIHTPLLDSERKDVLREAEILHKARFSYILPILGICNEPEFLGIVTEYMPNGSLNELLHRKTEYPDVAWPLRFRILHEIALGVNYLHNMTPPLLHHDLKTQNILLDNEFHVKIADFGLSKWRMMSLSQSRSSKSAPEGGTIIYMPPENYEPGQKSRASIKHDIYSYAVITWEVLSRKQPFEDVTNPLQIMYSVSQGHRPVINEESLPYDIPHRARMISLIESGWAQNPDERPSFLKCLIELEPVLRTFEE
Kind of assay: RIPK2 inhibition (ADP-Glo Kinase Assay). Conditions: RIPK2 5 nM, ATP 150 μM, MBP substrate, read-out: RIPK2 IC50. The class given is biochemical. The procedure, abridged: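 Human RIPK2 (5 nM) preincubated with compound 30 min at room temperature in 50 mM HEPES pH 7.5, 10 mM MgCl2, 2 mM DTT, 1 mM EGTA, 0.01% Brij-35, 0.05% BSA; native swine MBP as substrate. ADP formed quantified by ADP-Glo luminescence; percent inhibition relative to DMSO and no-enzyme controls.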
Take `Cc1c(Oc2ccnc3ccc(S(=O)(=O)N4C[C@@H](C)N[C@@H](C)C4)cc23)ccc(CC(=O)Nc2cnn(C(C)(C)C)c2)c1F` [Compound 387, N-(1-(tert-butyl)-1H-pyrazol-4-yl)-2-(4-((6-(((3R,5S)-3,5-dimethylpiperazin-1-yl)sulfonyl)quinolin-4-yl)oxy)-2-fluoro-3-methylphenyl)acetamide]: the IC50 (as a rule, the concentration at which inhibition is half-maximal) is under 2.5 nM.
For the compound `Cc1cc(CC(=O)Nc2cnn(C(C)(C)C)c2)c(F)cc1Oc1ccnc2ccc(C(=O)N3C[C@@H](C)N[C@@H](C)C3)cc12` [Compound 388, N-(1-(tert-butyl)-1H-pyrazol-4-yl)-2-(4-((6-((3R,5S)-3,5-dimethyl-piperazine-1-carbonyl)quinolin-4-yl)oxy)-2-fluoro-5-methyl-phenyl) acetamide], the IC50 was under 2.5 nM.
For `Cc1cc(CC(=O)Nc2cnn(C(C)(C)C)c2)c(F)cc1Oc1ccnc2ccc(S(=O)(=O)N3C[C@@H](C)O[C@@H](C)C3)cc12` [Compound 389, N-(1-(tert-butyl)-1H-pyrazol-4-yl)-2-(4-((6-(((2R,6S)-2,6-dimethylmorpholino)sulfonyl)quinolin-4-yl)oxy)-2-fluoro-5-methylphenyl)acetamide] the value was 2.9 nM; for `Cc1cc(CC(=O)Nc2cnn(C(C)(C)C)c2)c(F)cc1Oc1ccnc2ccc(S(=O)(=O)N3C[C@@H](C)N[C@@H](C)C3)cc12` [Compound 390, N-(1-(tert-butyl)-1H-pyrazol-4-yl)-2-(4-((6-(((3R,5S)-3,5-dimethylpiperazin-1-yl)sulfonyl)quinolin-4-yl)oxy)-2-fluoro-5-methylphenyl)acetamide], under 2.5 nM.
The figure for `Cc1cc(CC(=O)Nc2cnn(C(C)(C)C)c2)c(F)cc1Oc1ccnc2ccc(C(=O)NCC3COC3)cc12` [Compound 391, 4-(4-(2-((1-(tert-butyl)-1H-pyrazol-4-yl)amino)-2-oxoethyl)-5-fluoro-2-methyl-phenoxy)-N-(oxetan-3-ylmethyl) quinoline-6-carboxamide] is under 2.5 nM; for `Cc1cc(CC(=O)Nc2cnn(C(C)(C)C)c2)c(F)cc1Oc1ccnc2ccc(C(=O)NC3COC3)cc12` [Compound 392, 4-(4-(2-((1-(tert-butyl)-1H-pyrazol-4-yl)amino)-2-oxoethyl)-5-fluoro-2-methyl-phenoxy)-N-(oxetan-3-yl)quinoline-6-carboxamide] it is under 2.5 nM.
Consider `Cc1cc(CC(=O)Nc2cnn(C(C)(C)C)c2)c(F)cc1Oc1ccnc2ccc(C(=O)N[C@H]3C[C@H](O)C3)cc12` [Compound 393, 4-(4-(2-((1-(tert-butyl)-1H-pyrazol-4-yl)amino)-2-oxoethyl)-5-fluoro-2-methyl-phenoxy)-N-((1r,3r)-3-hydroxy-cyclobutyl) quinoline-6-carboxamide], for which the IC50 was under 2.5 nM.
`Cc1cc(CC(=O)Nc2cnn(C(C)(C)C)c2)c(F)cc1Oc1ccnc2ccc(C(=O)N[C@H]3C[C@@H](O)C3)cc12` [Compound 394, 4-(4-(2-((1-(tert-butyl)-1H-pyrazol-4-yl)amino)-2-oxoethyl)-5-fluoro-2-methyl-phenoxy)-N-((1s,3s)-3-hydroxy-cyclobutyl) quinoline-6-carboxamide]: the IC50 was under 2.5 nM.
The figure for `Cc1cc(CC(=O)Nc2cnn(C(C)(C)C)c2)c(F)cc1Oc1ccnc2ccc(C(=O)NC3CNC3)cc12` [Compound 397, N-(azetidin-3-yl)-4-(4-(2-((1-(tert-butyl)-1H-pyrazol-4-yl)amino)-2-oxoethyl)-5-fluoro-2-methyl-phenoxy) quinoline-6-carboxamide] is under 2.5 nM; for `Cc1cc(CC(=O)Nc2cnn(C(C)(C)C)c2)c(F)cc1Oc1ccnc2ccc(C(=O)NC3CC(F)(F)C3)cc12` [Compound 398, 4-(4-(2-((1-(tert-butyl)-1H-pyrazol-4-yl)amino)-2-oxoethyl)-5-fluoro-2-methyl-phenoxy)-N-(3,3-difluoro-cyclobutyl) quinoline-6-carboxamide] it is under 2.5 nM; for `Cc1c(Oc2ccnc3ccc(C(=O)NCC4COC4)cc23)ccc(CC(=O)Nc2cnn(C(C)(C)C)c2)c1F` [Compound 399, 4-(4-(2-((1-(tert-butyl)-1H-pyrazol-4-yl)amino)-2-oxoethyl)-3-fluoro-2-methyl-phenoxy)-N-(oxetan-3-ylmethyl) quinoline-6-carboxamide] it is under 2.5 nM.
`Cc1c(Oc2ccnc3ccc(C(=O)NC4COC4)cc23)ccc(CC(=O)Nc2cnn(C(C)(C)C)c2)c1F` [Compound 400, 4-(4-(2-((1-(tert-butyl)-1H-pyrazol-4-yl)amino)-2-oxoethyl)-3-fluoro-2-methyl-phenoxy)-N-(oxetan-3-yl)quinoline-6-carboxamide]: the IC50 is under 2.5 nM.
The figure for `Cc1c(Oc2ccnc3ccc(C(=O)N[C@H]4C[C@H](O)C4)cc23)ccc(CC(=O)Nc2cnn(C(C)(C)C)c2)c1F` [Compound 401, 4-(4-(2-((1-(tert-butyl)-1H-pyrazol-4-yl)amino)-2-oxoethyl)-3-fluoro-2-methyl-phenoxy)-N-((1r,3r)-3-hydroxy-cyclobutyl) quinoline-6-carboxamide] is under 2.5 nM; for `Cc1c(Oc2ccnc3ccc(C(=O)N[C@H]4C[C@@H](O)C4)cc23)ccc(CC(=O)Nc2cnn(C(C)(C)C)c2)c1F` [Compound 402, 4-(4-(2-((1-(tert-butyl)-1H-pyrazol-4-yl)amino)-2-oxoethyl)-3-fluoro-2-methyl-phenoxy)-N-((1s,3s)-3-hydroxy-cyclobutyl) quinoline-6-carboxamide] it is under 2.5 nM; for `Cc1c(Oc2ccnc3ccc(C(=O)NC4CNC4)cc23)ccc(CC(=O)Nc2cnn(C(C)(C)C)c2)c1F` [Compound 405, N-(azetidin-3-yl)-4-(4-(2-((1-(tert-butyl)-1H-pyrazol-4-yl)amino)-2-oxoethyl)-3-fluoro-2-methylphenoxy)quinoline-6-carboxamide] it is under 2.5 nM.
Take `Cc1c(Oc2ccnc3ccc(C(=O)NC4CC(F)(F)C4)cc23)ccc(CC(=O)Nc2cnn(C(C)(C)C)c2)c1F` [Compound 406, 4-(4-(2-((1-(tert-butyl)-1H-pyrazol-4-yl)amino)-2-oxoethyl)-3-fluoro-2-methylphenoxy)-N-(3,3-difluorocyclobutyl)quinoline-6-carboxamide]: the IC50 was under 2.5 nM.
Turning to `Cc1c(Oc2ccnc3ccc(CC4CCNCC4)cc23)ccc(CC(=O)Nc2cnn(C(C)(C)C)c2)c1F` [Compound 407, N-(1-(tert-butyl)-1H-pyrazol-4-yl)-2-(2-fluoro-3-methyl-4-((6-(piperidin-4-ylmethyl)quinolin-4-yl)oxy)phenyl)acetamide], the IC50 was under 2.5 nM.
For `Cc1cc(CC(=O)Nc2cnn(C(C)(C)C)c2)c(F)cc1Oc1ccnc2ccc(CC3CCNCC3)cc12` [Compound 408, N-(1-(tert-butyl)-1H-pyrazol-4-yl)-2-(2-fluoro-5-methyl-4-((6-(piperidin-4-ylmethyl)quinolin-4-yl)oxy)phenyl)acetamide] the value was under 2.5 nM; for `Cc1c(Oc2ccnc3ccc(O[C@H]4C[C@H]5CC[C@@H](C4)N5)cc23)ccc(CC(=O)Nc2cnn(C(C)(C)C)c2)c1F` [Compound 409, 2-(4-((6-(((1R,3r,5S)-8-azabicyclo[3. 2.1]octan-3-yl)oxy)quinolin-4-yl)oxy)-2-fluoro-3-methyl-pheny1)-N-(1-(tert-butyl)-1H-pyrazol-4-yl)acetamide], under 2.5 nM.
